Source: patent publication US20170340598A1, “Method of Reducing Uric Acid with Fucoxanthin-Containing Composition” (TCI Co., Ltd., priority 2016, published 2017)

Tests used:
xanthine oxidase = xanthine oxidase (Homo sapiens, UniProt P47989); assay: Evaluation of the inhibition of xanthine oxidase activity; assay type: biochemical; details: extract extracted for 120 minutes; fucoxanthin at the same concentration as the extract
Protocol: 50 μL of the test sample, 35 μL of phosphate buffer (70 mM, pH 7.5) and 30 μL of xanthine oxidase (0.02 units/mL) were mixed and shaken, and allowed to stand at room temperature for 15 minutes. Then, 60 μL of xanthine (150 μM) was added and allowed to react at room temperature for 30 minutes; the reaction was then stopped by the addition of 100 μL of the HCl (1N), followed by measuring absorbance at 290 nm. The inhibitory effect of the test sample against xanthine oxidase activity was evaluated and compared with the control group.

[1] = tested on: NOS2 (inducible nitric oxide synthase) gene; assay: NOS2 gene expression in MSU-induced ADTC5 cells (qPCR); assay type: cell-based, mouse; details: extract 2 mg/ml, fucoxanthin 1 ppm, normalized to β-actin
Protocol: Next, the cells were treated with monosodium urate (MSU) (0.125 mg/ml, in medium) to induce uric acid crystallization. Cells were divided into three groups: Group 1 was treated with Ascophyllum nodosum extract extracted for 120 minutes (2 mg/ml, in medium); group 2 was treated with fucoxanthin (1 ppm, in medium); group 3 was untreated (the control group). […] Next, reverse transcription was performed using a SuperScript™ reverse transcription kit (Invitrogen). The NOS2 (inducible nitric oxide synthase) gene was quantified using the ABI StepOnePlus™ System (Applied Biosystems), and β-actin was used as a reference gene for normalizing each sample. It is known that accumulation of uric acid crystals in the joints causes inflammation in joint cavities, which leads to the increase of NOS2 gene expression in chondrocytes. Therefore, NOS2 gene expression levels were used to evaluate the degree of inflammation of cells caused by uric acid crystallization. […] Statistical analysis was performed by Student's t-test (Microsoft Excel software).

Chain of xanthine oxidase (P47989 whole entry, species assumed): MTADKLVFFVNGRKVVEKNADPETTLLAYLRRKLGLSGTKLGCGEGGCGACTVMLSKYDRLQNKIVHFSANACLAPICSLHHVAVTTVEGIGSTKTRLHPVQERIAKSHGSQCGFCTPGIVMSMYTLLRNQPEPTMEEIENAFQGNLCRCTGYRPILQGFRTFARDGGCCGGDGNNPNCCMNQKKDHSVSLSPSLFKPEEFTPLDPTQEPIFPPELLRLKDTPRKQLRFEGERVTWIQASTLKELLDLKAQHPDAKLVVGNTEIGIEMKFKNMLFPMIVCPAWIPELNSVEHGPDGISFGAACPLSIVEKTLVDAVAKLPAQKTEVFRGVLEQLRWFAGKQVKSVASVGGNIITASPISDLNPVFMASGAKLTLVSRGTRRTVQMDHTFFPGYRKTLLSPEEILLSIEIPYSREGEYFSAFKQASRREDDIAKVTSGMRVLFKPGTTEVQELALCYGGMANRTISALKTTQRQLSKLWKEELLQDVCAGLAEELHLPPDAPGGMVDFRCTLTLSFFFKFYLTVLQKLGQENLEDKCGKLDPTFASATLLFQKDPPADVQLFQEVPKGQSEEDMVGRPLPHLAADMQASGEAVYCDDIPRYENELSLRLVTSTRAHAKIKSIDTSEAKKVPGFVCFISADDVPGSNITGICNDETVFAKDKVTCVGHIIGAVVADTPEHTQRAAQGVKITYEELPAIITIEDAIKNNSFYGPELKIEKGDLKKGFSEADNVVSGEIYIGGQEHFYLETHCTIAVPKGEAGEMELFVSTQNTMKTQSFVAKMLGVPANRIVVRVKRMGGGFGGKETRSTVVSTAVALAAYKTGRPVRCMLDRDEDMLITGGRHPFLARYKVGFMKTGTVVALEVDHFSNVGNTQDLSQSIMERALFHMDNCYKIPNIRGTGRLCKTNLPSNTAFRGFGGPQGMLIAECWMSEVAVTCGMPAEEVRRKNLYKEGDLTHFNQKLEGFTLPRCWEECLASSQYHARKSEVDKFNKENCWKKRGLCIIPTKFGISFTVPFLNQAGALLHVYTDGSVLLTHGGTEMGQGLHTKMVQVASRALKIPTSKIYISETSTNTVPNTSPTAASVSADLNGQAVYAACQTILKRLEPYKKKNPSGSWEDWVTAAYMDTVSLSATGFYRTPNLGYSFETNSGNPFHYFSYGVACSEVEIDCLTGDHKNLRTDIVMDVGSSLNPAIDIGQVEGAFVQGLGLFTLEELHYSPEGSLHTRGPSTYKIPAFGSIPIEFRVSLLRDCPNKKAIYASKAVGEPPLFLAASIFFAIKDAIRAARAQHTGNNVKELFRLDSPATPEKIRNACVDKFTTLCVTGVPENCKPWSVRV

inhibition rate against xanthine oxidase (xanthine oxidase): 44%
Structure (SMILES): CC(=O)O[C@H]1CC(C)(C)C(=C=C/C(C)=C/C=C/C(C)=C/C=C/C=C(C)/C=C/C=C(\C)C(=O)C[C@@]23O[C@]2(C)C[C@@H](O)CC3(C)C)[C@](C)(O)C1 [fucoxanthin]
NOS2 gene expression level (MSU-induced group expressed as 1) ([1]; ADTC5 cells co-treated with MSU 0.125 mg/ml for 24 hours): 0.24 | NOS2 gene expression level (MSU-induced group expressed as 1) ([1]; ADTC5 cells co-treated with MSU 0.125 mg/ml for 48 hours): 0.12
